{"source": "paper PMC6843786", "about": "“Temporin-SHa and Its Analogs as Potential Candidates for the Treatment of Helicobacter pylori” (Biomolecules, 2019)", "key": {"human gastric explants [1]": {"system": "human gastric explants", "assay": "Ex vivo toxicity assay, LDH release from human gastric explants", "assay_type": "cell-based", "details": "peptides 100 µM, CTAB 300 µM, % of total release", "experimental": "To further evaluate the innocuity of the peptides, ex vivo experiments were performed using human explants as previously described. Briefly, human gastric tissue samples were obtained from patients undergoing surgery at the Hospital Laveran (Marseille, France), unit of gastrointestinal surgery according to a collaborative clinical transfer project. The procedures were approved by the French ethic committee (CODECOH n° DC-2019-3402). All patients agreed for the use of their tissues for research purposes. Samples were taken from healthy patients during sleeve gastrectomy from macroscopically unaffected area as identified by the surgeons. After resection, the specimens were placed in ice-cold oxygenated sterile DMEM solution containing 1% streptomycin/penicillin solution and 50 μg/mL gentamycin and were directly transferred to the laboratory within 15 min on ice. Gastric tissues were extensively washed and maintained in ice-cold culture media containing 1% streptomycin/penicillin solution and 50 μg/mL gentamycin. Tissues were cleaned from vascular vessels and conjunctive tissue using forceps under binocular microscope. Gastric explants (wet weight of 20–30 mg) were then isolated from the cleaned resections using surgical punch (diameter of 0.5 cm^2). […] Finally, the explants were washed three times with culture media without antibiotics and transferred into 24-well plates before being incubated in RPMI media without fetal bovine serum, antibiotics and phenol red at 37 °C in the 5% CO2 incubator with 100 µM of peptides for 2, 4 or 8 h. Phenol red was omitted from the culture media since it interferes with the lactate dehydrogenase (LDH) assay. The detergent cetyl-trimethylammonium bromide (CTAB) at 300 µM was used as positive control of tissue damages. At the end of the incubation, the explants were collected and washed three times with PBS^++ and were fixed overnight at 4 °C with PFA diluted at 4% in PBS. After that, gastric explants were washed twice with PBS and were included in an inclusion medium (TFM-EMS), in transverse position to allow cutting in the crypt-villosity axis using cryostat (Leica CM3050) (Leica Microsystems, Nanterre, France). Four sections of 5 µm thickness were obtained per explant, each section being separated by 100 µm from the next in order to cover all the tissue. Explants were then stained using hematoxylin and eosin (H&E) staining protocol. Briefly, samples were incubated for 8 min in hematoxylin (Sigma-Aldrich) and then allowed to stain by incubation with water for 2 min. Then explants were incubated for 1 min in eosin (Sigma-Aldrich) and then in water for 1 min. This was followed by incubation of explants with ethanol at concentration of 70% then 95% and finally 100% for 2 min each. After blotting excess ethanol, gastric explants were incubated for 15 min with xylene and mounted with coverslip using Eukitt mounting media (EMS, Hatfield, PA, USA). Finally, explants were left overnight to dry before examination of tissue organization under the microscope (Leitz DMRB microscope (Leïca), equipped with Leïca DFC 450C camera). Quantification of the release of LDH was also used in addition to microscopic observations to evaluate the impact of peptides on human gastric explants. Briefly, after 2, 4 or 8 h of incubation of the explants with the peptides, the supernatants of the wells were collected and stored at -80 °C before the LDH assay. The LDH activity was measured using previously described protocol with minor changes. Briefly, 50 µL of supernatants obtained from explants were mixed with 200 µL of Tris-Lactate buffer (containing Tris HCl at 86 mM, L-Lactate at 56 mM and KCl at 172 mM, pH 9.3, all from Sigma-Aldrich) and 20 µL of NAD (at 172 mM, Sigma-Aldrich) into well of 96-wells plates. Increase in OD339nm was then measured at 30 °C after 0, 1, 5, and 10 min using microplate reader (Synergy Mx, Biotek). […]"}, "human gastric explants [2]": {"system": "human gastric explants", "assay": "Ex vivo toxicity assay, histological examination (H&E) of human gastric explants", "assay_type": "cell-based", "details": "2, 4 or 8 h; peptides 100 µM, CTAB 300 µM; H&E staining", "experimental": "To further evaluate the innocuity of the peptides, ex vivo experiments were performed using human explants as previously described. Briefly, human gastric tissue samples were obtained from patients undergoing surgery at the Hospital Laveran (Marseille, France), unit of gastrointestinal surgery according to a collaborative clinical transfer project. The procedures were approved by the French ethic committee (CODECOH n° DC-2019-3402). All patients agreed for the use of their tissues for research purposes. Samples were taken from healthy patients during sleeve gastrectomy from macroscopically unaffected area as identified by the surgeons. After resection, the specimens were placed in ice-cold oxygenated sterile DMEM solution containing 1% streptomycin/penicillin solution and 50 μg/mL gentamycin and were directly transferred to the laboratory within 15 min on ice. Gastric tissues were extensively washed and maintained in ice-cold culture media containing 1% streptomycin/penicillin solution and 50 μg/mL gentamycin. […] Quantification of the release of LDH was also used in addition to microscopic observations to evaluate the impact of peptides on human gastric explants. […] The LDH activity was measured using previously described protocol with minor changes. […] Increase in OD339nm was then measured at 30 °C after 0, 1, 5, and 10 min using microplate reader (Synergy Mx, Biotek). […]"}}}
{"smiles": "CCCCCCCCCCCCCCCC[N+](C)(C)C", "note": "[CTAB, cetyl-trimethylammonium bromide, reference compound]", "values": [{"measurement": "LDH release", "setting": "human gastric explants [1]; 2 h", "value": 81.1, "unit": "%"}, {"measurement": "LDH release", "setting": "human gastric explants [1]; 4 h", "value": 90.3, "unit": "%"}, {"measurement": "LDH release", "setting": "human gastric explants [1]; 8 h", "value": 100, "unit": "%"}, {"measurement": "tissue organization by microscopic observation", "setting": "human gastric explants [2]", "value": "major alterations of the tissue architecture"}]}
